According to ChEMBL document CHEMBL6087460, “Generating a Peptide Library Using the Repeats of Amino Acid Scaffolds Created by Sliding the Framework of a 7-mer Human Chemerin Segment and Discovery of Potent Antibacterial and Antimycobacterial Peptides” (J Med Chem, 2025):
Converted amounts (≈) assume the structure as drawn. The source made the active and inactive calls. The rule behind the calls is not given here.

Assays:
[1] = system: Mycobacterium tuberculosis variant bovis; experiment: Antitubercular activity against Mycobacterium bovis BCG incubated for 5 days by rezasurin dye based assay; type: functional; details: 120 h, time 5 day
[2] = system: Mycobacterium tuberculosis variant bovis; experiment: Antitubercular activity against Mycobacterium bovis BCG infected in BALB/c mouse assessed as decrease in bacterial count in lungs at 2.5 to 5 mg/kg, iv administered once a day for 2 weeks; type: functional, organism-based; details: dose 2.5-5 mg/kg
[3] = system: Mycobacterium tuberculosis variant bovis; experiment: Antimycobacterial activity against Mycobacterium bovis BCG infected in human THP-1 cells derived macrophages assessed as reduction in intracellular bacterial survival at 10 ug/ml incubated for 24 hrs relative to control; type: functional; details: dose 10 µg/ml
[4] = system: Mycobacterium tuberculosis variant bovis; experiment: Antitubercular activity against Mycobacterium bovis BCG infected in BALB/c mouse assessed as bacterial survival in lungs at 5 mg/kg, iv administered once a day for 2 weeks measured on day 15 relative to control; type: functional; details: 336 h
[5] = system: Mycobacterium tuberculosis variant bovis; experiment: Antimycobacterial activity against Mycobacterium bovis BCG infected in human THP-1 cells derived macrophages assessed as reduction in intracellular bacterial survival at 20 ug/ml incubated for 24 hrs relative to control; type: functional; details: dose 20 µg/ml
[6] = system: Mycobacterium tuberculosis variant bovis; experiment: Antitubercular activity against Mycobacterium bovis BCG infected in BALB/c mouse assessed as bacterial survival in spleen at 5 mg/kg, iv administered once a day for 2 weeks measured on day 15 relative to control; type: functional; details: 336 h
[7] = system: Mycobacterium tuberculosis variant bovis; experiment: Antitubercular activity against Mycobacterium bovis BCG infected in BALB/c mouse assessed as decrease in bacterial count in spleen at 2.5 to 5 mg/kg, iv administered once a day for 2 weeks; type: functional, organism-based; details: dose 2.5-5 mg/kg

CO[C@H]1/C=C/O[C@@]2(C)Oc3c(C)c(O)c4c(O)c(c(/C=N/N5CCN(C)CC5)c(O)c4c3C2=O)NC(=O)/C(C)=C\C=C\[C@H](C)[C@H](O)[C@@H](C)[C@@H](O)[C@@H](C)[C@H](OC(C)=O)[C@@H]1C [RIFAMPIN]
MIC [1]: 0.25 µM (≈ 0.206 µg/mL)

H-VLGRVLGRVLGRVLGR-OH
Activity [2]: Active
Activity [3]: 25%
survival at 5 mg/kg [4]: ~10%
Activity [5]: 10%
MIC [1]: 2.5 µM
survival at 5 mg/kg [6]: ~10%
Activity [7]: Active

H-LGRLLGRLLGRL-OH
MIC [1]: 5 µM

H-RLVRLVRLVRLVRLV-OH
MIC [1]: > 10 µM

H-KVLKVLKVLKVL-OH
MIC [1]: > 10 µM

H-RLVRLVRLVRLV-OH
MIC [1]: 5 µM

H-GRLVGRLVGRLVGRLV-OH
Activity [2]: Active
Activity [3]: 35%
survival at 5 mg/kg [4]: ~10%
Activity [5]: 20%
MIC [1]: 2.5 µM
survival at 5 mg/kg [6]: ~10%
Activity [7]: Active

H-KVLGKVLGKVLGKVLG-OH
MIC [1]: > 10 µM

H-RLRLRLRLRL-OH
MIC [1]: 10 µM

H-GRLGRLGRLGRLGRL-OH
MIC [1]: 5 µM
